Measured values from patent US4946842A, “Novel guanidino pyridazinones as cardiac stimulants” (Smith Kline & French Laboratories Limited, priority 1985, dated 1990).

Tests used:
ventricular strips = test: Cardiac stimulant activity in vitro: force of contraction of electrically stimulated ventricular strips; type: cell-based; settings: Cavia porcellus, read-out: EC50 (50% increase in the force of contraction of the ventricular strips); guinea pig ventricular strips, 37° C., 1.0 Hz, cumulative concentration response
Experimental: The compounds of formula (I) and their pharmaceutically acceptable salts are tested for cardiac stimulant activity following a procedure based on that of S. C. Verma and J. H. McNeill (J.Pharm & Exp. Therapeutics, 200, 352-362 (1977)). Guinea pigs (500-700 g) of either sex are sacrificed and the hearts are quickly removed and transferred to a dissecting dish containing oxygenated bathing fluid. While in the bathing medium, the right ventricle is cut into two strips. The strips are each suspended in a 50 ml bath containing Krebs Henseleit solution at 37° C., and the bath is bubbled with 95% oxygen and 5% carbon dioxide. The ventricular strips are electrically stimulated at a frequency of 1.0 Hz, at double the threshold voltage. A resting tension of 1.0 g is applied to the strips and the tension is kept constant by readjustment during an equilibration period of 60 minutes. The bathing fluid is frequently changed during this period. When a steady base line is obtained, a compound under test is added to the bathing fluid and a cumulative concentration response curve is plotted. The compounds for use in the present invention which were tested gave a 50% increase in the force of contraction of the ventricular strips at concentrations in the bathing fluid of less than 10^-4 molar, thus showing that they have activity as positive inotropic agents.

[1] = tested on: left ventricular dp/dt max; test: Cardiac stimulant activity in vivo (anaesthetised cats): left ventricular dp/dt max; set-up: species or system cat; settings: Felis catus, iv, read-out: ED50 (dose to increase left ventricular dp/dt max by 50%), i.v., pretreated with ganglion blocker and propranolol
Text: Cardiac Stimulant Activity--In vivo (Anaesthetised Cats)
# Relative duration was estimated in the anaesthetised cats following the

PDE (Peak III) = test: Inhibition of PDE (Peak III); settings: read-out: IC50 (PDE Peak III); 1 μM cyclic AMP
Experimental: (§1) The enzyme was assayed by incubation at 37° for 4-30 min in 50 mM Tris, 5 mM MgCl2, pH 7.5 with [3-H] cyclic nucleotide (4×10^5 disintegrations min^-1) and [14-C] nucleotide 5' monophosphate (3×10^3 disintegrations min^-1). The assay was stopped by boiling, and the [3-H] […] The reaction mixture was diluted with 0.5 ml 100 mM HEPES (N-2-Hydroxyethylpiperazine-N'-2-ethanesulfonic acid), 100 mM NaCl, pH 8.5, and applied to the column. […] The recovery of product as judged by [14-C] recovery was approximately 80%. All assays were linear with time of incubation and concentration of enzyme over the range used in these experiments.

PDE (Peak I) = test: Substrate kinetics of PDE (Peak I); type: biochemical, cat; settings: for Relative Vmax: PDE (Peak I), eluted at 0.15 M Na acetate
PDE (Peak II) = settings: in words
Experimental: as §1

| Structure (SMILES) | EC50 (ventricular strips) | ED50 [1] | other results |
| --- | --- | --- | --- |
| CC1CC(=O)NN=C1c1ccc(NC(=NC#N)NCc2ccccn2)cc1 (stereo not shown) [Example 12, 6-[4-(N^3-(2-Pyridylmethyl)-N^2-cyanoguanidino)phenyl]-5-methyl-4,5-dihydro-3(2H)-pyridazinone] | 12 µM | – | – |
| CC1CC(=O)NN=C1c1ccc(NC(=NC#N)NCc2ccccc2)cc1 (stereo not shown) [Example 10, 6-[4-(N^3 -Benzyl-N^2-cyanoguanidino)phenyl]-5-methyl-4,5-dihydro-3(2H)-pyridazinone] | 0.8 µM | 0.1 µmol/kg | – |
| CC1CC(=O)NN=C1c1ccc(NC(=NC#N)NCCc2ccccc2)cc1 (stereo not shown) [Example 13, 6-[4-(N^3 -Phenethyl-N^2-cyanoguanidino)phenyl]-5-methyl-4,5-dihydro-3(2H)-pyridazinone] | 12.5 µM | – | – |
| CNC(=NS(=O)(=O)c1ccccc1)Nc1ccc(C2=NNC(=O)CC2C)cc1 (stereo not shown) [Example 3, 6-[4-(N^ 3-methyl-N^2-phenylsulphonylguanidino)phenyl]-5-methyl-4,5-dihydro-3(2H)-pyridazinone] | – | 0.1 µmol/kg | IC50 (PDE (Peak III)): 230 nM |
| CC1CC(=O)NN=C1c1ccc(NC(=NC#N)NC2CC2)cc1 (stereo not shown) [Example 6] | 10 µM | 0.4 µmol/kg | – |
| COCCNC(=NC#N)Nc1ccc(C2=NNC(=O)CC2C)cc1 (stereo not shown) [Example 4, 6-[4-(N^3-(2-Methoxyethyl)-N^2-cyanoguanidino)phenyl]-5-methyl-4,5-dihydro-3(2H)-pyridazinone] | 2.8 µM | 0.2 µmol/kg | – |
| CC(=O)N=C(N)Nc1ccc(C2=NNC(=O)CC2C)cc1 (stereo not shown) [Example 1, 6-[4-(N^2-acetylguanidino)phenyl]-5-methyl-4,5-dihydro-3(2H)-pyridazinone] | 16 µM | 0.5 µmol/kg | IC50 (PDE (Peak III)): 2230 nM |
| C=CCNC(=NC#N)Nc1ccc(C2=NNC(=O)CC2C)cc1 (stereo not shown) [Example 7, 6-[4-(N^3 -Allyl-N^2-cyanoguanidino)phenyl]-5-methyl-4,5-dihydro-3(2H)-pyridazinone] | 10 µM | 0.3 µmol/kg | – |
| COc1ccc(CNC(=NC#N)Nc2ccc(C3=NNC(=O)CC3C)cc2)cc1 (stereo not shown) [Example 11, 6-[4-(N^3-(4-Methoxybenzyl)-N^2-cyanoguanidino)phenyl]-5-methyl-4,5-dihydro-3(2H)-pyridazinone] | – | 0.5 µmol/kg | – |
| Nc1nc2c(ncn2[C@@H]2O[C@@H]3COP(=O)(O)O[C@H]3[C@H]2O)c(=O)[nH]1 [cyclic GMP] | – | – | Relative Vmax (PDE (Peak I); 50 μg/ml calmodulin added): 7.2; Relative Vmax (PDE (Peak I); without calmodulin): 1.1; affinity of PDE (Peak I) (PDE (Peak I); in words): high affinity; affinity of PDE (Peak II) (PDE (Peak II)): relatively low affinities |
| C#CCNC(=NC#N)Nc1ccc(C2=NNC(=O)CC2C)cc1 (stereo not shown) [Example 8, 6-[4-(N^3 -Propargyl-N^2-cyanoguanidino)phenyl]-5-methyl-4,5-dihydro-3(2H)-pyridazinone] | 18 µM | 0.4 µmol/kg | – |
| CC1CC(=O)NN=C1c1ccc(NC(=NC#N)NCCO)cc1 (stereo not shown) [Example 5, 6-[4-(N^3-(2-Hydroxyethyl)-N^2-cyanoguanidino)phenyl]-5-methyl-4,5-dihydro-3(2H)-pyridazinone] | 8 µM | 0.7 µmol/kg | – |
| CC1CC(=O)NN=C1c1ccc(NC(=NC#N)NCc2ccc(O)cc2)cc1 (stereo not shown) [Example 9, 6-[4-(N^3-(4-Hydroxybenzyl)-N^2-cyanoguanidino)phenyl]-5-methyl-4,5-dihydro-3(2H)-pyridazinone] | – | 0.4 µmol/kg | IC50 (PDE (Peak III)): 80 nM |
| CNC(=NS(C)(=O)=O)Nc1ccc(C2=NNC(=O)CC2C)cc1 (stereo not shown) [Example 2, 6-[4-(N^3-methyl-N^2-methylsulphonylguanidino)phenyl]-5-methyl-4,5-dihydro-3(2H)-pyridazinone] | – | 0.2 µmol/kg | IC50 (PDE (Peak III)): 2480 nM |
